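Dose response: 5 concentrations. Exposure: 48 h. Format: 96-well plates. Endpoint: linear interpolation; highest concentration if not reached. The concentration for 50% growth inhibition is given as GI50. TGI: concentration producing complete growth inhibition.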
Assays:
Assay in all cases: NCI anticancer screen, dose series, 48 h
[1] = system: A498 renal
[2] = system: A549 NSCLC
[3] = system: COLO 205 colon
[4] = system: DU-145 prostate
[5] = system: HL-60(TB) leukemia
[6] = system: KM12 colon
[7] = system: LOX IMVI melanoma
[8] = system: OVCAR-3 ovarian
[9] = system: PC-3 prostate
[10] = system: UO-31 renal

Row | SMILES | GI50 [1] [µM] | TGI [1] [µM] | GI50 [2] [µM] | TGI [2] [µM] | GI50 [3] [µM] | TGI [3] [µM] | GI50 [4] [µM] | TGI [4] [µM] | GI50 [5] [µM] | TGI [5] [µM] | GI50 [6] [µM] | TGI [6] [µM] | GI50 [7] [µM] | TGI [7] [µM] | GI50 [8] [µM] | TGI [8] [µM] | GI50 [9] [µM] | TGI [9] [µM] | GI50 [10] [µM] | TGI [10] [µM]
1 | CCC(=O)Nc1ccc(C)c(-c2ccc(C(=O)NCC3CC3)cc2)c1 | > 25 | > 25 | > 25 | > 25 | > 25 | > 25 | > 25 | > 25 | > 25 | > 25 | > 25 | > 25 | > 25 | > 25 | > 25 | > 25 | > 25 | > 25 | > 25 | > 25
2 | Cc1cc2c(C(N)=O)c(N)n(-c3c(C)ccc(O)c3C)c2nc1C | 7.5 | 24.3 | 4.53 | 47.4 | 1.7 | 11.7 | 4.16 | 19.7 | 4.4 | > 100 | 4.54 | > 100 | 1.5 | 4.85 | 3.07 | 14.7 | 32.7 | > 100 | 3.18 | 14.9
3 | O=C1/C(=C/c2ccc(Cl)cc2)CCC/C1=C\c1ccc(Cl)cc1 | 2.3 | 8.69 | 3.63 | > 100 | 4.17 | > 100 | 4.09 | > 100 | 3.56 | > 100 | 1.9 | 3.75 | 1.69 | 3.42 | 3.03 | 7.77 | 5.46 | > 100 | 10.8 | > 100
4 | NS(=O)(=O)c1ccc(N(/C=C/C(=O)C(F)(F)F)Cc2ccc(Cl)cc2)cc1 | 17.4 | 41.2 | 27.7 | > 100 | 37.3 | > 100 | 22.1 | 66 | 39 | 78.3 | 22.7 | 74.5 | 21.8 | 42.9 | 30.3 | > 100 | 19.6 | 59 | 15.8 | 44.6
5 | CCc1ccc(C(=Nc2ccc(N(C)C(=O)CN3CCN(C)CC3)cc2)c2c(O)[nH]c3ccc(C(=O)OC)cc23)cc1 | 0.398 | 1.96 | 0.319 | 1.64 | 0.319 | 1.7 | 0.528 | 1.84 | 0.328 | 1.01 | 0.0387 | 1.4 | 0.337 | 1.63 | 0.538 | 1.96 | 0.292 | 1.61 | 0.287 | 1.36
6 | CC1(N)CCN(c2cnc(-c3cccc(Cl)c3Cl)c(N)n2)CC1 | 2.49 | 12 | 16.6 | > 100 | 16.9 | 35.5 | 56.5 | > 100 | 41.9 | > 100 | 7.13 | > 100 | 15.3 | 30 | 35.1 | > 100 | 26.7 | > 100 | 3.3 | 17.9
7 | N#Cc1c(N)nc(N2CCOCC2)c(C#N)c1-c1ccccn1 | > 100 | > 100 | > 100 | > 100 | > 100 | > 100 | > 100 | > 100 | > 100 | > 100 | > 100 | > 100 | > 100 | > 100 | > 100 | > 100 | > 100 | > 100 | > 100 | > 100
8 | O=C1OC(=O)C2CCCC3CCCC1C32 (stereo not given) | – | > 100 | – | > 100 | – | > 100 | – | > 100 | – | > 100 | – | > 100 | – | > 100 | – | > 100 | – | > 100 | – | > 100
9 | O=C(O)c1c(=O)cccc2ssc12 | 1.98 | 3.54 | 1.86 | 3.77 | 2 | 3.91 | 1.92 | 3.73 | 1.81 | 4.43 | 1.9 | 3.72 | 1.78 | 3.42 | 1.81 | 3.38 | 1.83 | 3.58 | 1.66 | 3.44
10 | COC(=O)c1cc2c3ccccc3[nH]c2c2sccc12 | 21 | 50.6 | 25.5 | > 100 | 17 | 41.8 | 19.7 | 66.5 | > 100 | > 100 | 12.3 | 87.2 | 5.68 | 24.8 | 24.1 | > 100 | 22.1 | > 100 | 7.59 | > 100
11 | N#Cc1cc(S(=O)(=O)Nc2nnc(-c3ccccc3)c(-c3ccccc3)n2)c(SCc2ccccc2)cc1Cl | 23.5 | 45.2 | 22.2 | 40.7 | 40.8 | > 100 | 20.1 | 41.6 | 19.9 | 44.8 | 19.2 | 42.5 | 16.8 | 32.8 | 15.3 | 31.5 | 20 | 43.2 | 26.8 | 71.3
12 | O=C(Nc1cccc(Cl)c1)c1cccc(NC2=C(Cl)C(=O)N(Cc3ccccc3)C2=O)c1 | > 100 | > 100 | > 100 | > 100 | > 100 | > 100 | 46 | > 100 | 12.6 | 31.8 | 28.2 | 80.4 | 28.3 | > 100 | 24.3 | > 100 | 21.9 | 93.1 | 36.4 | > 100
13 | CN(C)CCNC(=O)Cn1cnc2cccc([N+](=O)[O-])c2c1=O | – | > 100 | – | > 100 | – | > 100 | – | > 100 | – | > 100 | – | > 100 | – | > 100 | – | > 100 | – | > 100 | – | > 100
14 | COc1cc(-c2csc(NC(=O)Nc3ccc(C(F)(F)F)cc3)n2)cc(OC)c1OC | 1.99 | 5.09 | 2.74 | 11.7 | 2.1 | 4.5 | 3.22 | 12.8 | 3.75 | 8.05 | 2.09 | 7.48 | 1.59 | 3.15 | 2 | 5.22 | 1.84 | 8.2 | 1.77 | 5.29
